The values that follow come from patent US20230150980A1, “COLLAGEN 1 TRANSLATION INHIBITORS AND METHODS OF USE THEREOF” (Anima Biotech Inc., priority 2020, published 2023).

The test system of the assay is collagen 1. The experiment in a line: WI-38 collagen 1 inhibition assay (anti-Collagen I immunofluorescence).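 Further: minus sign means inactive.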 The format is cell-based. The note with it: cellular EC50, WI-38 human lung fibroblasts, values are LogEC50 classes.
Regarding `Cc1ncnc(N2CCN(Cc3nc4ccc(F)cc4o3)CC2)c1Cl` [compound 327, 2-((4-(5-chloro-6-methylpyrimidin-4-yl)piperazin-1-yl)methyl)-6-fluorobenzo[d]oxazole], the “COL1 Efficacy (LogEC50)” value is on record as “++ (++: −5 to −6)”. Take `CCn1cc(N2CCN(Cc3nc4ccccc4o3)CC2)nn1` [compound 328]: the “COL1 Efficacy (LogEC50)” value is listed as “−”. In the case of `Cc1ncnc(N2CCN(Cc3nc4ccc(F)cc4o3)CC2)c1C#N` [compound 329, 4-(4-((6-fluorobenzo[d]oxazol-2-yl)methyl)piperazin-1-yl)-6-methylpyrimidine-5-carbonitrile], the “COL1 Efficacy (LogEC50)” value was “++ (++: −5 to −6)”. In the case of `Cc1ncnc(N2CCN(Cc3nc4ccncc4o3)CC2)c1C` [compound 330, 2-((4-(5,6-dimethylpyrimidin-4-yl)piperazin-1-yl)methyl)oxazolo[5,4-c]pyridine], the “COL1 Efficacy (LogEC50)” value is on record as “++ (++: −5 to −6)”.

`Cn1cc(N2CCN(Cc3cc4ccc(F)cc4[nH]3)CC2)nn1` [compound 331]: the “COL1 Efficacy (LogEC50)” value is “−”. As for `c1ccc2oc(CN3CCN(c4c[nH]nn4)CC3)nc2c1` [compound 332], the “COL1 Efficacy (LogEC50)” value is reported as “−”. In the case of `Cc1ncnc(N2CCN(Cc3nc4ccc(F)cc4o3)CC2)c1C(N)=O` [compound 333], the “COL1 Efficacy (LogEC50)” value is “−”. Take `Cc1ncnc(N2CC3CC2CN3Cc2nc3ccc(F)cc3o2)c1C` (stereo not shown) [compound 334, 2-((5-(5,6-dimethylpyrimidin-4-yl)-2,5-diazabicyclo[2.2.1]heptan-2-yl)methyl)-6-fluorobenzo[d]oxazole]: the “COL1 Efficacy (LogEC50)” value is “+++ (+++: <−6)”.

With `Cc1ncnc(N2CCN(Cc3nc4ccccc4o3)CC2)c1C=O` [compound 336, 4-(4-(benzo[d]oxazol-2-ylmethyl)piperazin-1-yl)-6-methylpyrimidine-5-carbaldehyde], the “COL1 Efficacy (LogEC50)” value was “++ (++: −5 to −6)”. With `C#CCCC1(CCOc2cncnc2N2CCN(Cc3cc4ccccc4[nH]3)CC2)N=N1` [compound 337, 2-((4-(5-(2-(3-(but-3-yn-1-yl)-3H-diazirin-3-yl)ethoxy)pyrimidin-4-yl)piperazin-1-yl)methyl)-1H-indole] the entry was “++ (++: −5 to −6)”.

On to `C#CCCC1(CCOc2ccc3cc(CN4CCN(c5ncncc5CC)CC4)[nH]c3c2)N=N1` [compound 338, 6-(2-(3-(but-3-yn-1-yl)-3H-diazirin-3-yl)ethoxy)-2-((4-(5-ethylpyrimidin-4-yl)piperazin-1-yl)methyl)-1H-indole], for which the “COL1 Efficacy (LogEC50)” value was “+++ (+++: <−6)”. Take `CC(C)n1cc(N2CCN(Cc3nc4ccccc4o3)CC2)nn1` [compound 339]: the “COL1 Efficacy (LogEC50)” value is “−”. Consider `Cn1cnc(N2CCN(Cc3nc4ccccc4o3)CC2)c1` [compound 340], for which the “COL1 Efficacy (LogEC50)” value is “−”.
